Test results: ChEMBL document CHEMBL1201862, “PubChem BioAssay data set” (2004)
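48-hour exposure; five concentrations; linearly interpolated endpoints. GI50 marks 50% less growth.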 Activity calls are given as the source filed them. Cut-off read from the data, not from the text of the source: active = GI50 up to about 1.1 µM and inactive = higher. Where a SMILES comes first, the peptide text is derived from it. The star is where a group is joined. Boc = CC(C)(C)OC(=O)*; OSu = O=C1CCC(=O)N1O*

How the values were obtained:
Assay in all cases: NCI-60 cell line screen, 48 h
MDA-MB-435 = test system: MDA-MB-435
HCC 2998 = test system: HCC 2998
SK-MEL-28 = test system: SK-MEL-28
CCRF-CEM = test system: CCRF-CEM
U-251 = test system: U-251
NCI-H460 = test system: NCI-H460
Hs-578T = test system: Hs-578T
SW-620 = test system: SW-620
OVCAR-5 = test system: OVCAR-5
MOLT-4 = test system: MOLT-4
EKVX = test system: EKVX
UACC-257 = test system: UACC-257
TK-10 = test system: TK-10
HCT-15 = test system: HCT-15
CAKI-1 = test system: CAKI-1
COLO 205 = test system: COLO 205
SNB-75 = test system: SNB-75
NCI-H226 = test system: NCI-H226
NCI-H23 = test system: NCI-H23
T47D = test system: T47D

Compound | GI50 (MDA-MB-435) | GI50 (HCC 2998) | GI50 (SK-MEL-28) | GI50 (CCRF-CEM) | GI50 (U-251) | GI50 (NCI-H460) | GI50 (Hs-578T) | GI50 (SW-620) | GI50 (OVCAR-5) | GI50 (MOLT-4) | GI50 (EKVX) | GI50 (UACC-257) | GI50 (TK-10) | GI50 (HCT-15) | GI50 (CAKI-1) | GI50 (COLO 205) | GI50 (SNB-75) | GI50 (NCI-H226) | GI50 (NCI-H23) | GI50 (T47D)
CCCCCCCCCCCCCCCCCc1cccc(OCOCCOC)c1CO | > 100 µM (inactive) | > 100 µM (inactive) | > 100 µM (inactive) | > 100 µM (inactive) | > 100 µM (inactive) | > 100 µM (inactive) | > 100 µM (inactive) | > 100 µM (inactive) | > 100 µM (inactive) | > 100 µM (inactive) | > 100 µM (inactive) | > 100 µM (inactive) | > 100 µM (inactive) | > 100 µM | > 100 µM (inactive) | > 100 µM (inactive) | > 100 µM (inactive) | > 100 µM (inactive) | > 100 µM (inactive) | 
C=C(Cl)C(C)(Cl)CCC(Cl)C(C)C (stereo not given) | > 100 µM (inactive) | > 100 µM (inactive) | > 100 µM (inactive) | 38.7 µM (inactive) | > 100 µM (inactive) | > 100 µM (inactive) | > 100 µM (inactive) | 99.5 µM (inactive) | > 100 µM (inactive) | 36.7 µM (inactive) | > 100 µM (inactive) | > 100 µM (inactive) | > 100 µM (inactive) |  | > 100 µM (inactive) | > 100 µM (inactive) | 24.6 µM (inactive) | > 100 µM (inactive) | > 100 µM (inactive) | 
c1ccc(-c2nnn3c2NC2=C(CCCC2)C3c2ccccc2)cc1 (stereo not given) | 5.71 µM (inactive) |  |  | 12.3 µM (inactive) | 12.5 µM (inactive) | 23.4 µM (inactive) | 24.9 µM (inactive) | 12.5 µM (inactive) | 16 µM (inactive) | 0.425 µM (active) |  | 21.2 µM (inactive) |  | 1.54 µM | 18.2 µM (inactive) | 16.5 µM (inactive) |  | 27.4 µM (inactive) | 25.8 µM (inactive) | 22.5 µM (inactive)
COc1cc(C2c3[nH]c4ccc(F)cc4c3C[C@H]3COC(=O)N23)cc(OC)c1O (stereo not given in full) |  | 14.1 µM (inactive) | 7.96 µM (inactive) | 6.89 µM (inactive) | 6.47 µM (inactive) | 4.36 µM (inactive) | 2.85 µM (inactive) | 9.46 µM (inactive) | 18.8 µM (inactive) | 3.73 µM (inactive) | 24 µM (inactive) | 11.1 µM (inactive) | > 10 µM (inactive) | 8.69 µM | 11 µM (inactive) | 4.18 µM (inactive) | 2.29 µM (inactive) | 10.4 µM (inactive) | 4.11 µM (inactive) | 32.5 µM (inactive)
c1ccc(NN=C(c2ccccn2)c2ccccn2)nc1 | 0.817 µM (active) | 2.23 µM (inactive) | 0.869 µM (active) | 0.0224 µM (active) | 0.318 µM (active) | 0.153 µM (active) | 4.82 µM (inactive) | 0.141 µM (active) | 0.794 µM (active) |  | 0.335 µM (active) | 0.187 µM (active) | 0.357 µM (active) | 0.0893 µM | 0.0757 µM (active) | < 0.01 µM (active) | 2.56 µM (inactive) | 0.285 µM (active) | 0.0408 µM (active) | 
O=S(=O)(O)c1c(/N=N/c2c(O)ccc3ccccc23)ccc2ccccc12 | > 100 µM (inactive) |  | > 100 µM (inactive) | 48.4 µM (inactive) | > 100 µM (inactive) |  | > 100 µM (inactive) | > 100 µM (inactive) | > 100 µM (inactive) | > 100 µM (inactive) | > 100 µM (inactive) | > 100 µM (inactive) | > 100 µM (inactive) | > 100 µM | > 100 µM (inactive) | 70.1 µM (inactive) | > 100 µM (inactive) | 19.4 µM (inactive) | > 100 µM (inactive) | > 100 µM (inactive)
Cc1ncc([N+](=O)[O-])n1CCNS(=O)(=O)CCCn1ncnc1[N+](=O)[O-] | > 100 µM (inactive) |  | > 100 µM (inactive) | > 100 µM (inactive) | > 100 µM (inactive) | > 100 µM (inactive) | > 100 µM (inactive) | > 100 µM (inactive) | > 100 µM (inactive) | > 100 µM (inactive) | > 100 µM (inactive) | > 100 µM (inactive) | > 100 µM (inactive) | > 100 µM | > 100 µM (inactive) | > 100 µM (inactive) | > 100 µM (inactive) | > 100 µM (inactive) | > 100 µM (inactive) | > 100 µM (inactive)
Cc1nc2c(=O)n(C)ncc2[nH]1 | > 100 µM (inactive) |  | > 100 µM (inactive) | > 100 µM (inactive) | > 100 µM (inactive) | > 100 µM (inactive) | 77.1 µM (inactive) | > 100 µM (inactive) | > 100 µM (inactive) | > 100 µM (inactive) | > 100 µM (inactive) | > 100 µM (inactive) | > 100 µM (inactive) | > 100 µM | > 100 µM (inactive) | > 100 µM (inactive) | 22.6 µM (inactive) | > 100 µM (inactive) | > 100 µM (inactive) | > 100 µM (inactive)
Cc1nc2cc([N+](=O)[O-])ccc2c(NCCCN(C)C)c1C | 15.6 µM (inactive) |  | 50.5 µM (inactive) | 28.9 µM (inactive) | 18.8 µM (inactive) | 3.18 µM (inactive) | 20 µM (inactive) | 5.3 µM (inactive) | 13.2 µM (inactive) | 1.91 µM (inactive) |  | 5.45 µM (inactive) | 23.5 µM (inactive) | 14.7 µM | 20.3 µM (inactive) | 2.56 µM (inactive) | 20.7 µM (inactive) | 5.08 µM (inactive) | 4.03 µM (inactive) | 4.09 µM (inactive)
CCOC1NC(=O)Oc2ccccc21 (stereo not given) | > 100 µM (inactive) | > 100 µM (inactive) | > 100 µM (inactive) | > 100 µM (inactive) | > 100 µM (inactive) | > 100 µM (inactive) | > 100 µM (inactive) | > 100 µM (inactive) | > 100 µM (inactive) | > 100 µM (inactive) | > 100 µM (inactive) | > 100 µM (inactive) | > 100 µM (inactive) | > 100 µM | > 100 µM (inactive) | > 100 µM (inactive) | > 100 µM (inactive) | > 100 µM (inactive) | > 100 µM (inactive) | 
CCc1ccc(Nc2cc(=O)n(C)c(SCc3ccccc3)n2)cc1 | 80.4 µM (inactive) |  |  | 78 µM (inactive) |  |  | 97.3 µM (inactive) | 41.6 µM (inactive) | 30.8 µM (inactive) | > 100 µM (inactive) | 60.5 µM (inactive) | > 100 µM (inactive) | > 100 µM (inactive) | 62.2 µM | > 100 µM (inactive) | 12.7 µM (inactive) | > 100 µM (inactive) | 33.4 µM (inactive) | > 100 µM (inactive) | 95.3 µM (inactive)
CS(=O)(=O)Nc1ccc(Nc2ccnc3ccc4[nH]ccc4c23)cc1 | 15.1 µM (inactive) | 4.98 µM (inactive) | 15.8 µM (inactive) | 4.35 µM (inactive) | 9.93 µM (inactive) | 15.2 µM (inactive) | 21.8 µM (inactive) | 8.32 µM (inactive) | 26.3 µM (inactive) | 3.13 µM (inactive) | 24.8 µM (inactive) | 15.6 µM (inactive) | 30.2 µM (inactive) | 46 µM | 27.7 µM (inactive) | 9.1 µM (inactive) |  | 8.49 µM (inactive) | 16.3 µM (inactive) | 3.77 µM (inactive)
CC(C)(C)OC(=O)NC(Cc1ccc(O)cc1)C(=O)NC(CCCCN)C(=O)NC(Cc1ccc(O)cc1)C(=O)NC(CCCCN)C(=O)ON1C(=O)CCC1=O (stereo not given) (Boc-YKYK-OSu; configuration not given here) |  | > 100 µM (inactive) | > 100 µM (inactive) | > 100 µM (inactive) | > 100 µM (inactive) | > 100 µM (inactive) | > 100 µM (inactive) | > 100 µM (inactive) | > 100 µM (inactive) | > 100 µM (inactive) | > 100 µM (inactive) | > 100 µM (inactive) | > 100 µM (inactive) | > 100 µM |  | > 100 µM (inactive) | > 100 µM (inactive) | > 100 µM (inactive) | > 100 µM (inactive) | > 100 µM (inactive)
CN(C(=O)OC(C)(C)C)[C@H]1CCCC[C@H]1N1CCCC1 | > 100 µM (inactive) |  | > 100 µM (inactive) | 0.0129 µM (active) | > 100 µM (inactive) |  | > 100 µM (inactive) | > 100 µM (inactive) | > 100 µM (inactive) | > 100 µM (inactive) | > 100 µM (inactive) | 53.7 µM (inactive) | > 100 µM (inactive) | > 100 µM | > 100 µM (inactive) | > 100 µM (inactive) |  | > 100 µM (inactive) | > 100 µM (inactive) | > 100 µM (inactive)
CCOc1ccncc1[N+](=O)[O-] | > 100 µM (inactive) |  | > 100 µM (inactive) | > 100 µM (inactive) | > 100 µM (inactive) |  | > 100 µM (inactive) | > 100 µM (inactive) | > 100 µM (inactive) | > 100 µM (inactive) | > 100 µM (inactive) | > 100 µM (inactive) | > 100 µM (inactive) | > 100 µM | > 100 µM (inactive) | > 10 µM (inactive) | > 100 µM (inactive) | > 100 µM (inactive) | > 100 µM (inactive) | > 100 µM (inactive)
